According to article PMC8003975 (Cancers, 2021):
≈ marks a conversion by molar mass, not a printed value.

Columns and labels:
Cal27 cells = assay: Cytotoxicity assay (Cell Counting Kit-8); assay type: cell-based; details: Homo sapiens, CAL-27, 48 h
Text: (§1) Normal oral keratinocytes (NOK) (kindly gifted by Dr. Karl Mugner, Tuffs University, Boston, MA, USA) were maintained in Keratinocyte SFM medium supplemented with EGF and bovine pituitary extract (GIBCO, Life Technologies, Berkeley, MO, USA) and 1% penicillin/ streptomycin. HNC cell line Cal27 was purchased from the ATCC. JHU029 (JHU-29) and JHU022 (JHU-22) cell lines were procured from the Johns Hopkins University (Baltimore, MD, USA). The Cal27 and JHU022 cells were maintained in Dulbecco’s Modified Eagle Medium (DMEM), and JHU029 cells were in RPMI1640 (Sigma, St. Louis, MO, USA) media supplemented with 10% FBS and 1% penicillin/ streptomycin (Sigma-Aldrich, St. Louis, MO, USA) in a humidified CO2 incubator. The cell lines are routinely tested in our laboratory to rule out mycoplasma contamination using a commercial MycoAlert™ Mycoplasma Detection kit (Lonza, Morrisville, NC, USA). Cal27 cells are tongue origin and JHU022 and JHU029 cells are from laryngx origin.
(§2) Cal27, JHU029, JHU022 and NOK were seeded in 96 well-plate (5000 cells/well) and cells were treated with different concentration of M-I for 48 h. There were untreated control and DMSO treated vehicle control group for comparison. Cytotoxicity assay was performed using Cell Counting Kit-8 (Dojindo Molecular Technology, Rockville, MD, USA) according to manufacturer instruction.

JHU022 cells = assay: Cytotoxicity assay (Cell Counting Kit-8); assay type: cell-based; details: Homo sapiens, 48 h
Text: as §1, §2

JHU029 cells = assay: Cytotoxicity assay (Cell Counting Kit-8); assay type: cell-based; details: Homo sapiens, 48 h
Text: as §1, §2

[1] = system: human normal oral keratinocytes (NOK); assay: Cytotoxicity assay (Cell Counting Kit-8); assay type: cell-based; details: 48 h
Text: as §1, §2

[2] = Toxicity study, 5 days, body weight and serum chemistries; assay type: in vivo, C57Bl/6 male mice
Description: For toxicity analysis, mice (n = 3) were given 20 mg/ kg of M-I twice a day or 30 mg/kg IP dose of M-I once a day by IP injection for five days. In parallel, there were untreated control (n = 3) and BME treated group (n = 3) for comparison. Behavior and body weight of mice were monitored daily. The body weight in all the mice was stable, with no drastic changes seen in any of the mice tested. We collected blood on day six, and serum chemistries related to liver and kidney function were examined.
For toxicity study, C57Bl/6 male mice were received either 30% BME through drinking water or 20 mg/kg of M-I twice a day or 30 mg/kg of M-I once a day by IP injection for 5 days. There were three mice in each group, including untreated control. Blood was collected on day 6, and serum was prepared. Serum parameters related to hepatotoxicity (total bilirubin, alanine transaminase, aspartate transaminase, and alkaline phosphatase) and nephrotoxicity (urea and creatinine) were performed.

Cal27 xenograft = assay: Tumorigenicity assay, HNC xenograft model; assay type: in vivo, BALB/c athymic nude mice
Description: Figure 7 Therapeutic effect of momordicine-I in Cal27 xenograft model. Cal27 cells (1.5 × 10^6) cells were injected subcutaneously into the flank of nude mice. After formation of palpable tumor, mice were randomly divided into three groups (n = 5): Control (without any treatment), BME group (30% BME through drinking water) and M-I group (30 mg/kg IP, once in a day and every day). (A) Body weight was measured in control and treated mice. (B) Tumors were measured using a slide caliper and tumor volumes were calculated. Arrow indicates starting point BME/ M-I treatment. (C,D) Control or treated tumor lysates were subjected to Western blot analysis for c-Met and c-Myc expression using specific antibodies and representative bands are shown. The blot was reprobed with an antibody to Actin for normalization. […] Small bar indicates standard error (*, p < 0.05; **, p < 0.01; *** p < 0.001).
JHU029 or Cal27 cells (1.5 × 10^6) containing 40% Matrigel were injected subcutaneously into the flank of BALB/c athymic nude mice (7–8 weeks old). When the palpable tumor was developed (>60 mm^3), mice were divided into three groups randomly, 5 mice in each group. The control group was without any treatment. The BME group received 30% (v/v) BME through drinking water. M-I group received 30 mg/kg dose of M-I once in day, every day. Body weight was monitored, and tumor size was measured using a slide caliper and volume was calculated using the formula ½ L × W^2. After animal sacrifice tumors were dissected out and snap frozen in liquid nitrogen for further analysis. All the animal experiments were carried out in accordance NIH guidelines, following a protocol approved (1017) by the Institutional Animal Care and Use Committee (IACUC) of Saint Louis University.

[3] = literature-reported biology of the tentatively identified metabolite; no reference given; cited from earlier work
rat cardiac fibroblasts = details: cited from earlier work
insulin secretion = details: cited from earlier work
[4] = Cal27 xenograft tumor lysates, Western blot, vs control

## CC(C)=CC(O)CC(C)[C@H]1CC[C@@]2(C)[C@@H]3[C@@H](O)C=C4[C@@H](CC[C@H](O)C4(C)C)[C@]3(C=O)CC[C@]12C (stereo partly drawn) [M-I, (3S, 7S, 8S, 9R, 10R, 13R, 14S, 17R) 3,7-dihydroxy-17-(4-hydroxy-6-methylhept-5-en-2-yl)-4,4,13,14-tetramethyl-2,3,7,8,10,11, 12,15,16,17-decahydro-1H-cyclopenta[a]phenanthrene-9-carbaldehyde]
Cal27 cells
  IC50: 7 µg/mL (≈ 14.8 µM)
JHU022 cells
  IC50: 17 µg/mL (≈ 36 µM)
JHU029 cells
  IC50: 6.5 µg/mL (≈ 13.8 µM)
[1]
  cytotoxic effect on normal oral keratinocytes: minimum effect
[2]; M-I 20 mg/kg twice a day or 30 mg/kg once a day IP, or 30% BME in drinking water, five days
  body weight: stable
[2]; blood on day six, M-I IP for five days or 30% BME in drinking water
  serum chemistries (total bilirubin, alanine transaminase, aspartate transaminase, alkaline phosphatase, creatinine, urea, glucose) versus untreated control: comparable
Cal27 xenograft; [4]
  c-Met expression in tumors: significant reduction
  c-Myc expression in tumors: significant reduction
Cal27 xenograft; Cal27 xenograft, nude mice, M-I 30 mg/kg IP once a day or 30% BME in drinking water
  reduction of tumor growth: ~ 50%
Cal27 xenograft; Cal27 xenograft, throughout the experiment
  body weight: increasing body weight
[3]
  Reported Biology: • stimulate insulin secretion in vitro • diabetes-associated cardiac fibrosis.
Rat cardiac fibroblasts
  effect on high-glucose-induced cell proliferation and collagen synthesis: inhibitory effects
Insulin secretion
  insulin secretion in vitro: stimulate insulin secretion
